What was measured:
human 5-HT1B receptor = molecular target: T1, human 5-HT1B receptor (Homo sapiens, UniProt P28222); assay: Radioligand binding assay (competition and kinetics), CHO-K1 membranes
T1 construct: purchased Euroscreen; host or cells: CHO-K1
Protocol: (§1) For kinetics of radioligand competitive binding, serial dilutions were performed from master solution in 100% DMSO to obtain intermediate concentrations 200-fold higher than the concentrations to be tested. Each test sample was diluted 100-fold in the assay buffer and dispensed into the test plate.
5-HT1B Radioligand Binding Assay
(§2) Washing buffer: 50 mM Tris (pH 7.4)
Ligand: 5-CT (Tocris, 0458)
Determination of IC50 and Ki constant for each test compound. […] The samples were incubated for 60 min (or 4 hours for a second experiment on 5-HT2B receptors) at a temperature optimized for each receptor and then filtered over a filter plate. After washing the filters 5 times with 0.5 mL of ice-cold washing buffer, 50 μL of Microscint 20 (Packard) were added to the filters and the plates were incubated 15 min on an orbital shaker and then counted for 1 min/well. The test compounds were tested in duplicate at the nanomolar concentrations reported below in Table 5.
(§3) Determination of kon and koff constants for each test compound. Each compound was first assessed in a pilot experiment to evaluate its effect on the kinetic binding of each receptor-radioligand pair. […] After washing the filters 5 times with 0.5 mL of ice-cold washing buffer, 50 μL of Microscint 20 (Packard) were added to the filters and the plates were incubated 15 min on an orbital shaker and then counted for 1 min/well.

human D2L receptor = molecular target: T2, human D2L receptor (Homo sapiens, UniProt P14416); assay: as above
T2 construct: purchased Euroscreen; host or cells: CHO-K1
T2 sequence (P14416 whole entry): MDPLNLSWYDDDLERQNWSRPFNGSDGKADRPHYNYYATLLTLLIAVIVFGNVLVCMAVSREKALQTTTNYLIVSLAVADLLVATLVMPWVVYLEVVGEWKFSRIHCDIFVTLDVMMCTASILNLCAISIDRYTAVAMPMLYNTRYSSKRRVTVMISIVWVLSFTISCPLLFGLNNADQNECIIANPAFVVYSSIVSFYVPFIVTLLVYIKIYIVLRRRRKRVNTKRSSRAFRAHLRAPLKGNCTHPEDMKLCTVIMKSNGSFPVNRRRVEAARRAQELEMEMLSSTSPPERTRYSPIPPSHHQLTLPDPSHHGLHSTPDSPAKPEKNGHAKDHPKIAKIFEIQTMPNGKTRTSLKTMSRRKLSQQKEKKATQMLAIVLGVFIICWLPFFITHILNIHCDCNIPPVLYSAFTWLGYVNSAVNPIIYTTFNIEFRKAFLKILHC
Protocol: as §1
D2L Radioligand Binding Assay
Assay buffer: 25 mM HEPES (pH 7.4), 5 mM MgCl2, 1 mM CaCl2, BSA protease free 0.5%
Washing buffer: 25 mM HEPES (pH 7.4), 5 mM MgCl2, 1 mM CaCl2
Membrane: recombinant CHO-K1-D2L membranes thawed on ice and diluted in assay buffer (2 μg/well)
Ligand: Risperidone (Tocris Bioscience, 2865) […]
(§4) Determination of IC50 and Ki constant for each test compound. […] After washing the filters 5 times with 0.5 mL of ice-cold washing buffer, 50 μL of Microscint 20 (Packard) were added to the filters and the plates were incubated 15 min on an orbital shaker and then counted for 1 min/well. […]
as §3, with “min/well. […]” for “min/well.”

human 5-HT1D receptor = molecular target: T3, human 5-HT1D receptor (Homo sapiens, UniProt P28221); assay: as above
T3 construct: purchased Euroscreen; host or cells: CHO-K1
T3 sequence (P28221 whole entry): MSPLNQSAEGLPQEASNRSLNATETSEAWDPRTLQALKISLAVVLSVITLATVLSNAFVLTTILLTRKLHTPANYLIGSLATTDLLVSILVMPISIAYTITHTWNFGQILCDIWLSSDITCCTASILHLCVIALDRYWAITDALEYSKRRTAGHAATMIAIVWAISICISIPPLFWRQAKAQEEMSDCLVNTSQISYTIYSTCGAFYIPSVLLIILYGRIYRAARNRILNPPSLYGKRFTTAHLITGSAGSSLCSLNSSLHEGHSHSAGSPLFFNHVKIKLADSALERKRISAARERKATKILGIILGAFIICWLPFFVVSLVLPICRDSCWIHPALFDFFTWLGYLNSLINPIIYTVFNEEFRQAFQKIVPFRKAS
Protocol: as §1
5-HT1D Radioligand Binding Assay
Assay buffer: 50 mM Tris (pH 7.4), 4 mM CaCl2, 0.1% ascorbic acid
as §2
Membrane: recombinant CHO-K1-5-HT1D membranes thawed on ice and diluted in assay buffer (10 μg/well)
Ligand: 5-HT (Sigma, H-9523)
as §4, §3

[1] = cited from earlier work
[2] = subcutaneously, concentration 1.5 mM; cited from earlier work

T1 sequence (P28222 whole entry): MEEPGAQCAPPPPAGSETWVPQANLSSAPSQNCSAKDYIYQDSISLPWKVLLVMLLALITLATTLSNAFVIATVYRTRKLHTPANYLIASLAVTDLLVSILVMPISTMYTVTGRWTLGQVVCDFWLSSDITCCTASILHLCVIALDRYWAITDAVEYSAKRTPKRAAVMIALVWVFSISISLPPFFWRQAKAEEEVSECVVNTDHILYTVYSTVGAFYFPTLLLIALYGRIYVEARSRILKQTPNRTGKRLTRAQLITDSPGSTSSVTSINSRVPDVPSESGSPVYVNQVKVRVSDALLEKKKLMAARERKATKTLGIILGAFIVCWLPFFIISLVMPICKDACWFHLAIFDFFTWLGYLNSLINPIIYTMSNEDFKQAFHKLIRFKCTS

SMILES	Avg Koff (human 5-HT1B receptor) [s⁻¹]	Avg Koff (human D2L receptor) [s⁻¹]	Avg Koff (human 5-HT1D receptor) [s⁻¹]	concentration of 8′-OH DHE metabolite relative to parent DHE ([1]; previous studies) [times]	treated patients with nausea [2] [%]	fraction of administered dose extracted in the urine ([1]; IM administered dose)	total DHE metabolites as share of plasma AUC ([1]; nasal administration of DHE)
CN1C[C@H](C(=O)N[C@]2(C)O[C@@]3(O)[C@@H]4CCC(O)N4C(=O)[C@H](Cc4ccccc4)N3C2=O)C[C@@H]2c3cccc4[nH]cc(c34)C[C@H]21 (stereo partly shown) [8′-OH DHE, 8′-Hydroxy-Dihydroergotamine]	9.83e-05	0.00127	0.000175	5 to 7			
CN1C[C@H](C(=O)N[C@]2(C)O[C@@]3(O)[C@@H]4CCCN4C(=O)[C@H](Cc4ccccc4)N3C2=O)C[C@@H]2c3cccc4[nH]cc(c34)C[C@H]21 [DHE, Dihydroergotamine]					~16	6-7%	20-30%
